# Test results: patent US7932270B2 (Cytokinetics, Inc., priority 2006, dated 2011)
# Molecular target: T1, chicken gizzard smooth muscle myosin subfragment-1 chemically crosslinked to cardiac or skeletal actin (Gallus gallus, UniProt P10587)
# T1 construct: chicken gizzard smooth muscle myosin subfragment-1; from tissue; host or cells: chicken gizzard
# Assay: Smooth muscle myosin ATPase dose response assay (pyruvate kinase/horseradish peroxidase/pyruvate oxidase-coupled, amplex red fluorescence)
# Format: biochemical
# Details: read-out: IC50 Arithmetic Mean
# Summary of the method: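 Readout is amplex red signal from coupled ATPase of actin-crosslinked gizzard myosin S1 (0.15 mM ATP, 12 mM K-PIPES, pH 7.00). IC50 is the half-maximal activity point of a four-parameter Hill fit.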
# T1 sequence (P02607 2-151): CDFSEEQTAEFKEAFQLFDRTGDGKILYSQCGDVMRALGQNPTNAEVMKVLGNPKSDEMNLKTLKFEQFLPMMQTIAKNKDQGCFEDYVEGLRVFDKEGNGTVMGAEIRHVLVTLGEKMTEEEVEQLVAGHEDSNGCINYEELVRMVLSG
# T1 sequence (P10587 84-789): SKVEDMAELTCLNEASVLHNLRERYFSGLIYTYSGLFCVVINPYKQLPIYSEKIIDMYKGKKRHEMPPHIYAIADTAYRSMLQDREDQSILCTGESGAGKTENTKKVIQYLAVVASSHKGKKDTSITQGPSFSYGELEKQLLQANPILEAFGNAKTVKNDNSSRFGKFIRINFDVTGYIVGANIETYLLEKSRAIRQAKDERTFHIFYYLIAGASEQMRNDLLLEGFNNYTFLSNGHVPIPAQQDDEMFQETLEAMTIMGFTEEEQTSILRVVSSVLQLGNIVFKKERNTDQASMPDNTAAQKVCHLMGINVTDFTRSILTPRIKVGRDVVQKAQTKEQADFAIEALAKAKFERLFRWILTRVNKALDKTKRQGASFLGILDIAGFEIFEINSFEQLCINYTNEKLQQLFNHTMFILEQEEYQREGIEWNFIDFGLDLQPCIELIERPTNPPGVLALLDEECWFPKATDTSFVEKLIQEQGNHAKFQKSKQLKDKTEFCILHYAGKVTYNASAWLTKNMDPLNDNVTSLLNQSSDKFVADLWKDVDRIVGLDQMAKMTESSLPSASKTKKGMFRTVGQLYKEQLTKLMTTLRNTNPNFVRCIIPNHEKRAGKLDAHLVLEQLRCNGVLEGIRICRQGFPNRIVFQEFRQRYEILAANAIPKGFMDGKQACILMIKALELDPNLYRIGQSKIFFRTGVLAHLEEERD
row,Structure (SMILES),IC50 [nM]
1,CC(=O)N1CC[C@H](CNC(=O)c2ccc(-c3ccccc3)nc2NCCc2ccccn2)C1 [N-[((3R)-1-acetylpyrrolidin-3-yl)methyl]{6-phenyl-2-[(2-(2-pyridyl)ethyl)amino](3-pyridyl)}carboxamide],26900
2,N#Cc1cc(C(=O)NCc2cccnc2CN)c(NCCc2cccc(F)c2)nc1-c1cn[nH]c1 [N-{[2-(aminomethyl)(3-pyridyl)]methyl}(5-cyano-2-{[2-(3-fluorophenyl)ethyl]amino}-6-pyrazol-4-yl(3-pyridyl))carboxamide],58
3,Cn1cc(-c2nc(NCCc3cccc(F)c3)c(C(=O)NCc3cccc(CN)n3)cc2Br)cn1 [N-{[6-(aminomethyl)(2-pyridyl)]methyl}(5-bromo-2-{[2-(3-fluorophenyl)ethyl]amino}-6-(1-methylpyrazol-4-yl)(3-pyridyl))carboxamide],27
4,CC(C)(C)OC(=O)NCCn1ccc(CNC(=O)c2ccc(-c3ccccc3C#N)nc2NCCc2cccc(F)c2)n1 [N-[(1-{2-[(tert-butoxy)carbonylamino]ethyl}pyrazol-3-yl)methyl](6-(2-cyanophenyl)-2-{[2-(3-fluorophenyl)ethyl]amino}(3-pyridyl))carboxamide],2730
5,NCCCN1C(=O)CC[C@@H]1CNC(=O)c1ccc(-c2cn[nH]c2)nc1NCCc1cccc(F)c1 [N-{[(2R)-1-(3-aminopropyl)-5-oxopyrrolidin-2-yl]methyl}(2-{[2-(3-fluorophenyl)ethyl]amino}-6-pyrazol-4-yl(3-pyridyl))carboxamide],966
6,C[C@H](CNC(=O)c1cc(F)c(-c2cnn(C)c2)nc1NCCc1cccc(F)c1)NC(=O)CNC(=O)OC(C)(C)C,1750
7,Cn1cc(-c2nc(NCCc3cccc(F)c3)c(C(=O)NC[C@H](CO)NC(=O)OC(C)(C)C)cc2F)cn1 [N-((1R)-1-{[(5-fluoro-2-{[2-(3-fluorophenyl)ethyl]amino}-6-(1-methylpyrazol-4-yl)(3-pyridyl))carbonylamino]methyl}-2-hydroxyethyl)(tert-butoxy)carboxamide],25900
8,C=CCNC(=O)c1ccc(-c2ccccc2)nc1NCCc1ccccc1 [{6-phenyl-2-[(2-phenylethyl)amino](3-pyridyl)}-N-prop-2-enylcarboxamide],1060
9,O=C(NCC1CCNC1=O)c1ccc(-c2cn[nH]c2)nc1NCCc1cccc(F)c1 (centres unmarked) [(2-{[2-(3-fluorophenyl)ethyl]amino}-6-pyrazol-4-yl(3-pyridyl))-N-[(2-oxopyrrolidin-3-yl)methyl]carboxamide],180
10,"Cc1ccc(-c2ccc(C(=O)NCc3cccnc3)c(NCCc3ccccn3)n2)cc1C [{6-(3,4-dimethylphenyl)-2-[(2-(2-pyridyl)ethyl)amino](3-pyridyl)}-N-(3-pyridylmethyl)carboxamide]",3380
11,O=C(NCc1cccs1)c1ccc(-c2ccccc2)nc1NCCc1ccccn1 [{6-phenyl-2-[(2-(2-pyridyl)ethyl)amino](3-pyridyl)}-N-(2-thienylmethyl)carboxamide],1720
12,CNC(=O)[C@H](CNC(=O)OC(C)(C)C)NC(=O)c1ccc(-c2ccccc2C#N)nc1NCCc1cccc(F)c1 [(2S)-3-[(tert-butoxy)carbonylamino]-2-[(6-(2-cyanophenyl)-2-{[2-(3-fluorophenyl)ethyl]amino}(3-pyridyl))carbonylamino]-N-methylpropanamide],43600
13,O=C(NCc1cccnc1)c1ccc(-c2ccccc2)nc1NCCc1c[nH]cn1 [{2-[(2-imidazol-4-ylethyl)amino]-6-phenyl(3-pyridyl)}-N-(3-pyridylmethyl)carboxamide],9770
14,"Cn1cc(-c2nc(NCCc3cccc(F)c3)c(C(=O)NCC3COC(C)(C)OC3)cc2F)cn1 [N-[(2,2-dimethyl(1,3-dioxan-5-yl))methyl](5-fluoro-2-{[2-(3-fluorophenyl)ethyl]amino}-6-(1-methylpyrazol-4-yl)(3-pyridyl))carboxamide]",2230

# Continued, values first:
row,IC50 [nM],Structure (SMILES)
1,399,"N#Cc1ccccc1-c1ccc(C(=O)NC[C@H]2CCCCN2C(=O)[C@H](N)CCN)c(NCCc2cccc(F)c2)n1 [N-{[(2R)-1-((2R)-2,4-diaminobutanoyl)(2-piperidyl)]methyl}(6-(2-cyanophenyl)-2-{[2-(3-fluorophenyl)ethyl]amino}(3-pyridyl))carboxamide]"
2,37,CN1CC(=O)N[C@@H](CNC(=O)c2ccc(-c3ccccc3C#N)nc2NCCc2cccc(F)c2)C1 (stereo in doubt) [(6-(2-cyanophenyl)-2-{[2-(3-fluorophenyl)ethyl]amino}(3-pyridyl))-N-[(4-methyl-6-oxopiperazin-2-yl)methyl]carboxamide]
3,412,N#Cc1ccccc1-c1ccc(C(=O)NCC2CCCN(CCN=[N+]=[N-])C2=O)c(NCCc2cccc(F)c2)n1 (centres unmarked) [(6-(2-cyanophenyl)-2-{[2-(3-fluorophenyl)ethyl]amino}(3-pyridyl))-N-{[1-(3-diazo-3-azaprop-3-enyl)-2-oxo(3-piperidyl)]methyl}carboxamide]
4,260,N#Cc1ccccc1CCNc1nc(-c2ccccc2)ccc1C(=O)NCc1cccnc1
5,27,N#Cc1ccccc1-c1ccc(C(=O)NC[C@H]2CCCN2C(=O)OCCN)c(NCCc2cccc(F)c2)n1 [2-aminoethyl (2R)-2-{[(6-(2-cyanophenyl)-2-{[2-(3-fluorophenyl)ethyl]amino}(3-pyridyl))carbonylamino]methyl}pyrrolidinecarboxylate]
6,559,O=C(NC[C@H]1CCN1C(=O)CO)c1ccc(-c2cn[nH]c2)nc1NCCc1cccc(F)c1 [N-{[(2R)-1-(2-hydroxyacetyl)azetidin-2-yl]methyl}(2-{[2-(3-fluorophenyl)ethyl]amino}-6-pyrazol-4-yl(3-pyridyl))carboxamide]
7,166,C[C@@H](N)C(=O)N1CCC[C@@H]1CNC(=O)c1ccc(-c2ccccc2C#N)nc1NCCc1cccc(F)c1 [N-{[(2R)-1-((2R)-2-aminopropanoyl)pyrrolidin-2-yl]methyl}(6-(2-cyanophenyl)-2-{[2-(3-fluorophenyl)ethyl]amino}(3-pyridyl))carboxamide]
8,431,N#Cc1ccccc1-c1ccc(C(=O)NC[C@@H]2CCC(=O)N2CCCN)c(NCCc2cccc(F)c2)n1 [N-{[(2S)-1-(3-aminopropyl)-5-oxopyrrolidin-2-yl]methyl}(6-(2-cyanophenyl)-2-{[2-(3-fluorophenyl)ethyl]amino}(3-pyridyl))carboxamide]
9,60,N#Cc1ccccc1-c1ccc(C(=O)NC[C@H]2CCN2C(=O)CCCO)c(NCCc2cccc(F)c2)n1 [N-{[(2R)-1-(4-hydroxybutanoyl)azetidin-2-yl]methyl}(6-(2-cyanophenyl)-2-{[2-(3-fluorophenyl)ethyl]amino}(3-pyridyl))carboxamide]
10,44,N#Cc1ccccc1-c1ccc(C(=O)NC[C@H]2CCN2C(=O)CN)c(NCCc2cccc(F)c2)n1 [N-{[(2R)-1-(2-aminoacetyl)azetidin-2-yl]methyl}(6-(2-cyanophenyl)-2-{[2-(3-fluorophenyl)ethyl]amino}(3-pyridyl))carboxamide]
11,4790,N#Cc1ccccc1-c1ccc(C(=O)NCC2CCN(CCCN)C2)c(NCCc2cccc(F)c2)n1 (centres unmarked) [N-{[1-(3-aminopropyl)pyrrolidin-3-yl]methyl}(6-(2-cyanophenyl)-2-{[2-(3-fluorophenyl)ethyl]amino}(3-pyridyl))carboxamide]
12,3560,C[C@@H](CNC(=O)c1ccc(-c2ccccc2C#N)nc1NCCc1cccc(F)c1)NC(=O)CCN
13,158,Cc1cc(C(=O)NCc2cccnc2CN)c(NCCc2cccc(F)c2)nc1-c1ccccc1C#N [N-{[2-(aminomethyl)(3-pyridyl)]methyl}(6-(2-cyanophenyl)-2-{[2-(3-fluorophenyl)ethyl]amino}-5-methyl(3-pyridyl))carboxamide]
14,2690,N#Cc1ccccc1-c1ccc(C(=O)NC[C@H]2CCCCN2C(=O)OCCCl)c(NCCc2cccc(F)c2)n1 [2-chloroethyl (2R)-2-{[(6-(2-cyanophenyl)-2-{[2-(3-fluorophenyl)ethyl]amino}(3-pyridyl))carbonylamino]methyl}piperidinecarboxylate]
15,816,N#Cc1ccccc1-c1ccc(C(=O)N[C@@H](CN)C(N)=O)c(NCCc2cccc(F)c2)n1 [N-((1S)-2-amino-1-carbamoylethyl)(6-(2-cyanophenyl)-2-{[2-(3-fluorophenyl)ethyl]amino}(3-pyridyl))carboxamide]
16,248,N#Cc1ccccc1-c1ccc(C(=O)NCC2CCCCCN2C(=O)CN)c(NCCc2cccc(F)c2)n1 (centres unmarked) [N-{[1-(2-aminoacetyl)azaperhydroepin-2-yl]methyl}(6-(2-cyanophenyl)-2-{[2-(3-fluorophenyl)ethyl]amino}(3-pyridyl))carboxamide]
17,2650,N#Cc1ccccc1-c1nc(NCCc2cccc(F)c2)c(C(=O)NCc2cccnc2)cc1Br [(5-bromo-6-(2-cyanophenyl)-2-{[2-(3-fluorophenyl)ethyl]amino}(3-pyridyl))-N-(3-pyridylmethyl)carboxamide]
18,33,N#Cc1sccc1-c1ccc(C(=O)NCc2cccnc2)c(NCCc2cccc(F)c2)n1 [(6-(2-cyano(3-thienyl))-2-{[2-(3-fluorophenyl)ethyl]amino}(3-pyridyl))-N-(3-pyridylmethyl)carboxamide]
19,1270,CNC(=O)[C@@H](C)NC(=O)c1ccc(-c2ccccc2C#N)nc1NCCc1cccc(F)c1 [(2R)-2-[(6-(2-cyanophenyl)-2-{[2-(3-fluorophenyl)ethyl]amino}(3-pyridyl))carbonylamino]-N-methylpropanamide]
20,519,COC(=O)CCC(=O)N1CC[C@@H]1CNC(=O)c1ccc(-c2ccccc2C#N)nc1NCCc1cccc(F)c1 [methyl 4-((2R)-2-{[(6-(2-cyanophenyl)-2-{[2-(3-fluorophenyl)ethyl]amino}(3-pyridyl))carbonylamino]methyl}azetidinyl)-4-oxobutanoate]
21,544,CNC(=O)[C@@H](CO)NC(=O)c1ccc(-c2ccccc2C#N)nc1NCCc1cccc(F)c1 [(2R)-2-[(6-(2-cyanophenyl)-2-{[2-(3-fluorophenyl)ethyl]amino}(3-pyridyl))carbonylamino]-3-hydroxy-N-methylpropanamide]
